# Experimental data as given in PMC5063996, “The Mechanism by Which Arabinoxylanases Can Recognize Highly Decorated Xylans” (The Journal of Biological Chemistry, 2016).
# Molecular target: T1, CtGH5-CBM6 (CtGH5-CtCBM6, derivative of arabinoxylanase CtXyl5A) (Acetivibrio thermocellus, UniProt A3DHG6, E279S)
# T1 construct: gene Cthe_2193; no signal peptide, CBM13, Fn3, CBM62 or dockerin; C-terminal His6; E. coli BL21(DE3)
# Assay: X-ray crystal structure, co-crystal, […] Å
# Type: binding
# Details: nucleophile-inactive mutant; 10 mM WAX-derived oligosaccharide; subsites -1 to -4 and -2*; PDB code printed as 2LA2 (apparent misprint for 5LA2)
# T1 sequence (A3DHG6 entry or part of it E279S): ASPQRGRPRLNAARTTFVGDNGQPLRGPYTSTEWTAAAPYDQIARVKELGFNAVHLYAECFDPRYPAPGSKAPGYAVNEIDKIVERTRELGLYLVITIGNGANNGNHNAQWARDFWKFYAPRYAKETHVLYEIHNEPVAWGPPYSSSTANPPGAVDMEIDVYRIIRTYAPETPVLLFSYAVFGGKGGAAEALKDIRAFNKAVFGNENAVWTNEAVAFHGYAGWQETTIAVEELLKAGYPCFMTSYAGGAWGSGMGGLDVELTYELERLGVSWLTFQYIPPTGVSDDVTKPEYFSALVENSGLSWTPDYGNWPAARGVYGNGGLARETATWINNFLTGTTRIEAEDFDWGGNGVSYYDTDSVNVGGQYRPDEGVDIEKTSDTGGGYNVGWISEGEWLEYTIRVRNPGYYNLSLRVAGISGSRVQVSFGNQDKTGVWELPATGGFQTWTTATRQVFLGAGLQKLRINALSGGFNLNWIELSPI
compound,measurement,value
"OC[C@@H]1O[C@@H](O[C@H]2[C@H](O[C@@H]3OC[C@@H](O[C@@H]4OC[C@@H](O[C@@H]5OC[C@@H](O)[C@H](O)[C@H]5O)[C@H](O)[C@H]4O)[C@H](O)[C@H]3O)COC(O)[C@@H]2O)[C@H](O)[C@H]1O (stereo partly drawn) [Xylp-β-1,4-Xylp-β-1,4-Xylp-[α-1,3-Araf]-β-1,4-Xylp]","X-ray crystal structure, co-crystal, 1.65 Å",co-crystallizing the nucleophile inactive mutant CtGH5E279S-CtCBM6 with a WAX-derived oligosaccharide
